In article PMC8881610 (Nature Communications, 2022):
Positions count from the first letter of the chain named.

Key:
Assay in all cases: Whole-cell binding assay, competition with 125I-GIP1-42
Set-up in all cases: acylated tirzepatide to the full-length or modified; Flag; expressed in transfected cells
[1] = biological target: T1, GIPR (Homo sapiens, UniProt P48546, F127A); conditions: GIPR F127A, CHO-K1
T1 sequence (P48546 22-466 F127A): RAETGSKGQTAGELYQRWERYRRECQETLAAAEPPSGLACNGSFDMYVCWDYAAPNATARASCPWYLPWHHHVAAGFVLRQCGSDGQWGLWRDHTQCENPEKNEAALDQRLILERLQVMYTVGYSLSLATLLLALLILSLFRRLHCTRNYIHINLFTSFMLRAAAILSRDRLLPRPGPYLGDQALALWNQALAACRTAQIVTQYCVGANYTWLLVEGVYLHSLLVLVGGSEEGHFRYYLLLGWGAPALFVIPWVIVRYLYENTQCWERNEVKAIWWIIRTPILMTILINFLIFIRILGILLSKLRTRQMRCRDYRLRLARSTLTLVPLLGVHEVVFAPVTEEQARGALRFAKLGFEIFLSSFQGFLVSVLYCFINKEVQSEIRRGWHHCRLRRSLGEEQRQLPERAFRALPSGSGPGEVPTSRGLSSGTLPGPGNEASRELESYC
Outline: (§1)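 Transiently transfected CHO-K1 cells expressing WT or mutant GIPR were washed in F-12 with 0.1% BSA or 0.1% casein and 33 mM HEPES, then incubated 2 h at 37 °C. After ice-cold PBS washes, cells were lysed and bound radioactivity counted (CPM).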

[2] = biological target: T2, GIPR (Homo sapiens, UniProt P48546, Q285A); conditions: GIPR Q285A, CHO-K1
T2 sequence (P48546 22-466 Q285A): T1 sequence (P48546 22-466 F127A) with A106F, Q264A
Outline: as §1

[3] = biological target: T3, GIPR (Homo sapiens, UniProt P48546, Q30A); conditions: GIPR Q30A, CHO-K1
T3 sequence (P48546 22-466 Q30A): T1 sequence (P48546 22-466 F127A) with Q9A, A106F
Outline: as §1

[4] = biological target: T4, GIPR (Homo sapiens, UniProt P48546, W209A); conditions: GIPR W209A, CHO-K1
T4 sequence (P48546 22-466 W209A): T1 sequence (P48546 22-466 F127A) with A106F, W188A
Outline: as §1

[5] = read-out: binding pIC50 (converted)

Structure (SMILES): CCCCCCCCCCCCCCCC(=O)N[C@@H](CCC(=O)NCCCC[C@H](NC(=O)[C@H](CC(=O)O)NC(=O)[C@H](CO)NC(=O)[C@@H](NC(=O)[C@H](Cc1ccccc1)NC(=O)[C@@H](NC(=O)CNC(=O)[C@H](CCC(N)=O)NC(=O)C(C)(C)NC(=O)[C@@H](N)Cc1c[nH]cn1)[C@@H](C)O)[C@@H](C)O)C(=O)N[C@@H](CO)C(=O)N[C@@H](CCCCN)C(=O)N[C@@H](Cc1ccc(O)cc1)C(=O)N[C@@H](CC(C)C)C(=O)N[C@@H](CC(=O)O)C(=O)N[C@@H](CCC(=O)O)C(=O)N[C@@H](CCCNC(=N)N)C(=O)N[C@@H](C)C(=O)N[C@@H](C)C(=O)N[C@@H](CCC(N)=O)C(=O)N[C@@H](CC(=O)O)C(=O)N[C@@H](Cc1ccccc1)C(=O)N[C@H](C(=O)N[C@@H](CCC(N)=O)C(=O)N[C@@H](Cc1c[nH]c2ccccc12)C(=O)N[C@@H](CC(C)C)C(=O)N[C@@H](CC(C)C)C(=O)N[C@@H](CC(=O)O)C(=O)NCC(=O)NCC(=O)N1CCC[C@H]1C(=O)N[C@@H](CO)C(=O)N[C@@H](CO)C(=O)NCC(=O)N[C@@H](C)C(=O)N1CCC[C@H]1C(=O)N1CCC[C@H]1C(=O)N1CCC[C@H]1C(=O)N[C@@H](CO)C(N)=O)C(C)C)C(=O)O [Peptide 20]
- binding Span [1]: 85.53 ± 4.36 % WT
- IC50 [1, 5]: 20 nM
- binding Span [2]: 108.98 ± 3.60 % WT
- IC50 [2, 5]: 13.5 nM
- binding Span [3]: 92.75 ± 4.50 % WT
- IC50 [3, 5]: 17 nM
- binding Span [4]: 96.83 ± 6.13 % WT
- IC50 [4, 5]: 20 nM
